Compound: COC1=CC=C(C=C1)COC2=C(C=C(C=C2)CC3=CN=C(N=C3N)N)OC [GW-2580] + NC(=O)Nc1cc(-c2cccc(F)c2)sc1C(=O)N[C@H]1CCCNC1 [AZD7762] (partner 0.2 µM)
Experiment: relative viability (nuclei count vs DMSO), 5 days (fraction); higher = more cells survive
Details: first compound 0.08 µM
How it was run: (§1)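 One day after seeding in 1536-well plates, lung cancer cell lines were dosed by pin tool. Dosing was either single-drug or a fixed anchor-drug dose plus five library-drug doses (not always all listed) in √10 steps. After 5 days, nuclei were stained in one fix-and-stain step and counted on 4× images, and relative viability is the nuclei count of treated wells over that of vehicle wells, given as the median of duplicate plates.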

| Cell Line | relative viability |
| --- | --- |
| EKVX | 0.7 |
| LC-2-ad | 0.866 |
| NCI-H1944 | 0.572 |
| NCI-H1975 | 0.829 |
| RERF-LC-KJ | 1.11 |
| ABC-1 | 0.836 |
| NCI-H358 | 0.588 |
| NCI-H650 | 0.884 |
| PC-3 [JPC-3] | 0.732 |

Same assay, conditions: first compound 0.8 µM

| Cell Line | relative viability |
| --- | --- |
| EKVX | 0.777 |
| LC-2-ad | 0.948 |
| NCI-H1944 | 0.498 |
| NCI-H1975 | 0.805 |
| RERF-LC-KJ | 1.25 |
| ABC-1 | 0.941 |
| NCI-H358 | 0.604 |
| NCI-H650 | 1.28 |
| PC-3 [JPC-3] | 1.09 |

Same assay, conditions: first compound 2.53 µM

| Cell Line | relative viability |
| --- | --- |
| EKVX | 0.644 |
| LC-2-ad | 0.826 |
| NCI-H1944 | 0.485 |
| NCI-H1975 | 0.598 |
| RERF-LC-KJ | 0.825 |
| ABC-1 | 0.717 |
| NCI-H358 | 0.516 |
| NCI-H650 | 0.869 |
| PC-3 [JPC-3] | 0.897 |

Same assay, conditions: first compound 8 µM

| Cell Line | relative viability |
| --- | --- |
| EKVX | 0.804 |
| LC-2-ad | 0.873 |
| NCI-H1944 | 0.452 |
| NCI-H1975 | 0.815 |
| RERF-LC-KJ | 0.913 |
| ABC-1 | 0.829 |
| NCI-H358 | 0.363 |
| NCI-H650 | 0.982 |
| PC-3 [JPC-3] | 0.781 |

Compound: COC1=CC=C(C=C1)COC2=C(C=C(C=C2)CC3=CN=C(N=C3N)N)OC [GW-2580] + COc1cc2c(Oc3ccc(NC(=O)C4(C(=O)Nc5ccc(F)cc5)CC4)cc3F)ccnc2cc1OCCCN1CCOCC1 [Foretinib] (partner 0.25 µM)
Experiment: as above
Details: first compound 0.08 µM
How it was run: as §1

| Cell Line | relative viability |
| --- | --- |
| EKVX | 0.971 |
| LC-2-ad | 0.826 |
| NCI-H1944 | 0.945 |
| NCI-H1975 | 0.965 |
| RERF-LC-KJ | 0.896 |
| ABC-1 | 1.09 |
| NCI-H358 | 0.761 |
| NCI-H650 | 1.06 |
| PC-3 [JPC-3] | 1.06 |

Same assay, conditions: first compound 0.8 µM

| Cell Line | relative viability |
| --- | --- |
| EKVX | 1.11 |
| LC-2-ad | 0.931 |
| NCI-H1944 | 0.886 |
| NCI-H1975 | 1.03 |
| RERF-LC-KJ | 0.911 |
| ABC-1 | 1.16 |
| NCI-H358 | 0.79 |
| NCI-H650 | 1.05 |
| PC-3 [JPC-3] | 1.06 |

Same assay, conditions: first compound 2.53 µM

| Cell Line | relative viability |
| --- | --- |
| EKVX | 0.726 |
| LC-2-ad | 0.991 |
| NCI-H1944 | 0.966 |
| NCI-H1975 | 0.939 |
| RERF-LC-KJ | 0.842 |
| ABC-1 | 0.931 |
| NCI-H358 | 0.679 |
| NCI-H650 | 0.932 |
| PC-3 [JPC-3] | 0.948 |

Same assay, conditions: first compound 8 µM

| Cell Line | relative viability |
| --- | --- |
| EKVX | 0.779 |
| LC-2-ad | 0.936 |
| NCI-H1944 | 0.631 |
| NCI-H1975 | 0.803 |
| RERF-LC-KJ | 0.765 |
| ABC-1 | 0.86 |
| NCI-H358 | 0.557 |
| NCI-H650 | 0.94 |
| PC-3 [JPC-3] | 0.865 |

Compound: COC1=CC=C(C=C1)COC2=C(C=C(C=C2)CC3=CN=C(N=C3N)N)OC [GW-2580] + Cc1cc(Nc2cc(N3CCN(C)CC3)nc(Sc3ccc(NC(=O)C4CC4)cc3)n2)n[nH]1 [Tozasertib] (partner 0.1 µM)
Experiment: as above
Details: first compound 0.08 µM
How it was run: as §1

| Cell Line | relative viability |
| --- | --- |
| EKVX | 0.553 |
| LC-2-ad | 0.501 |
| NCI-H1944 | 0.267 |
| NCI-H1975 | 0.854 |
| RERF-LC-KJ | 0.474 |
| ABC-1 | 0.157 |
| NCI-H358 | 0.103 |
| NCI-H650 | 0.721 |
| PC-3 [JPC-3] | 0.89 |

Same assay, conditions: first compound 0.8 µM

| Cell Line | relative viability |
| --- | --- |
| EKVX | 0.428 |
| LC-2-ad | 0.412 |
| NCI-H1944 | 0.256 |
| NCI-H1975 | 1.06 |
| RERF-LC-KJ | 0.593 |
| ABC-1 | 0.147 |
| NCI-H358 | 0.117 |
| NCI-H650 | 0.743 |
| PC-3 [JPC-3] | 0.916 |

Source: the supplement of paper PMC10307832
